# Data taken from patent US20100267561A1, “HERBICIDAL PYRIDAZINONE DERIVATIVES” (priority 2007, published 2010).
# How the values were obtained:
# Type in all cases: in vivo
# [1] = tested on: windgrass (Apera spica-venti); experiment: Test B postemergence plant response; conditions: for Plant response rating, Windgrass: Postemergence
# Outline: (§1)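 Postemergence greenhouse test; plants at 2 to 18 cm (1- to 4-leaf stage) given formulated test chemical, held 13 to 15 days, then visually rated against untreated controls on a 0 (no effect) to 100 (complete control) scale; dash means no result.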
# [2] = tested on: chickweed (Stellaria media); experiment: Test B postemergence plant response; conditions: for Plant response rating, Chickweed: Postemergence, scale 0 to 100
# Outline: as §1
# [3] = tested on: canarygrass (Phalaris minor); experiment: Test B postemergence plant response; conditions: for Plant response rating, Canarygrass: Postemergence
# Outline: as §1
# [4] = tested on: winter barley (Hordeum vulgare); experiment: Test B postemergence plant response; conditions: for Plant response rating, Barley: Postemergence
# Outline: as §1
# [5] = tested on: pigweed (Amaranthus retroflexus); experiment: Test B pre-/postemergence plant response; conditions: for Pigweed plant response rating: 8 g ai/ha
# Description: (§2) Seeds of plant species selected from blackgrass (Alopecurus myosuroides), downy bromegrass (Bromus tectorum), green foxtail (Setaria viridis), Italian ryegrass (Lolium multiflorum), wheat (Triticum aestivum), wild oat (Avena fatua), catchweed bedstraw (Galium aparine), bermudagrass (Cynodon dactylon), surinam grass (Brachiaria decumbens), cocklebur (Xanthium strumarium), corn (Zea mays), large crabgrass (Digitaria sanguinalis), woolly cupgrass (Eriochloa villosa), giant foxtail (Setaria faberii), goosegrass (Eleusine indica), johnsongrass (Sorghum halepense), kochia (Kochia scoparia), lambsquarters (Chenopodium album), morningglory (Ipomoea coccinea), eastern black (E.B.) nightshade (Solanum ptycanthum), yellow nutsedge (Cyperus esculentus), pigweed (Amaranthus retroflexus), common ragweed (Ambrosia elation), Russian thistle (Salsola iberica), soybean (Glycine max), common (oilseed) sunflower (Helianthus annuus), and velvetleaf (Abutilon theophrasti) were planted and treated preemergence with test chemicals formulated in a non-phytotoxic solvent mixture which included a surfactant.
# (§3) At the same time, plants selected from these crop and weed species and also winter barley (Hordeum vulgare), canarygrass (Phalaris minor), chickweed (Stellaria media) and windgrass (Apera spica-venti) were treated with postemergence applications of some of the test chemicals formulated in the same manner. Plants ranged in height from 2 to 18 cm (1- to 4-leaf stage) for postemergence treatments.
# (§4) Plant species in the flooded paddy test consisted of rice (Oryza sativa), umbrella sedge (Cyperus difformis), ducksalad (Heteranthera limosa) and barnyardgrass (Echinochloa crus-galli) grown to the 2-leaf stage for testing. At time of treatment, test pots were flooded to 3 cm above the soil surface, treated by application of test compounds directly to the paddy water, and then maintained at that water depth for the duration of the test. Treated plants and controls were maintained in a greenhouse for 13 to 15 days, after which time all species were compared to controls and visually evaluated. Plant response ratings, summarized in Table B, are based on a scale of 0 to 100 where 0 is no effect and 100 is complete control. A dash (-) response means no test result.
# [6] = tested on: giant foxtail (Setaria faberii); experiment: Test B pre-/postemergence plant response; conditions: for Foxtail, Giant plant response rating: 8 g ai/ha
# Description: as §2, §3, §4
# [7] = tested on: morningglory (Ipomoea coccinea); experiment: Test B pre-/postemergence plant response; conditions: for Morningglory plant response rating: 8 g ai/ha
# Description: as §2, §3, §4
# [8] = tested on: wheat (Triticum aestivum); experiment: Test B pre-/postemergence plant response; conditions: for Wheat plant response rating: 8 g ai/ha
# Description: as §2, §3, §4
# [9] = tested on: surinam grass (Brachiaria decumbens); experiment: Test B pre-/postemergence plant response; conditions: for Surinam Grass plant response rating: 8 g ai/ha
# Description: as §2, §3, §4
# [10] = tested on: bermudagrass (Cynodon dactylon); experiment: Test B pre-/postemergence plant response; conditions: for Bermudagrass plant response rating: 8 g ai/ha
# Description: as §2, §3, §4
# [11] = tested on: soybean (Glycine max); experiment: Test B pre-/postemergence plant response; conditions: for Soybean plant response rating: 8 g ai/ha
# Description: as §2, §3, §4
# [12] = tested on: common (oilseed) sunflower (Helianthus annuus); experiment: Test B pre-/postemergence plant response; conditions: Preemergence
# Description: as §2, §3, §4
# [13] = tested on: downy bromegrass (Bromus tectorum); experiment: Test B pre-/postemergence plant response; conditions: for Bromegrass, Downy plant response rating: 8 g ai/ha
# Description: as §2, §3, §4
# [14] = tested on: lambsquarters (Chenopodium album); experiment: Test B pre-/postemergence plant response
# Description: as §2, §3, §4
# [15] = tested on: Italian ryegrass (Lolium multiflorum); experiment: Test B pre-/postemergence plant response; conditions: for Ryegrass, Italian plant response rating: 8 g ai/ha
# Description: as §2, §3, §4
# [16] = 8 g ai/ha, postemergence, 0-100 scale
# [17] = 31 g ai/ha, scale 0 to 100, 0 no effect, 100 complete control
# [18] = Postemergence, 16 g ai/ha, scale 0 to 100
# [19] = Postemergence, 31 g ai/ha, scale 0 to 100, 0 no effect, 100 complete control
# [20] = Postemergence, 62 g ai/ha, scale 0 to 100
# [21] = Preemergence, 16 g ai/ha, scale 0 to 100 (0 no effect, 100 complete control)
# [22] = Preemergence, 31 g ai/ha, 0 to 100 scale, 0 no effect, 100 complete control
# [23] = Preemergence, 62 g ai/ha, scale 0 to 100
compound,measurement,setting,value
CCc1cc(-c2ccc(C(F)(F)F)cc2)nn1-c1c(OS(C)(=O)=O)cnn(C)c1=O [Compound 19],Windgrass plant response rating,[1]; [16],90
same,"Plant response rating, Windgrass","[1]; 16 g ai/ha, scale 0 to 100",95
same,"Plant response rating, Windgrass",[1]; [17],100
same,"Plant response rating, Windgrass","[1]; 62 g ai/ha, scale 0 to 100",100
same,Chickweed plant response rating,[2]; [16],0
same,"Plant response rating, Chickweed",[2]; 16 g ai/ha,0
same,"Plant response rating, Chickweed",[2]; 62 g ai/ha,0
same,Canarygrass plant response rating,[3]; [16],0
same,"Plant response rating, Canarygrass","[3]; 16 g ai/ha, scale 0 to 100",20
same,"Plant response rating, Canarygrass",[3]; [17],20
same,"Plant response rating, Canarygrass","[3]; 62 g ai/ha, scale 0 to 100",100
same,Barley plant response rating,[4]; [16],0
same,"Plant response rating, Barley","[4]; 16 g ai/ha, scale 0 to 100, 0 no effect, 100 complete control",5
same,"Plant response rating, Barley",[4]; [17],5
same,"Plant response rating, Barley","[4]; 62 g ai/ha, scale 0 to 100",90
same,Pigweed plant response rating,"[5]; postemergence, 0-100 scale",0
same,"Plant response rating, Pigweed",[5]; [18],0
same,"Plant response rating, Pigweed",[5]; [19],0
same,"Plant response rating, Pigweed",[5]; [20],0
same,"Plant response rating, Pigweed",[5]; [21],0
same,"Plant response rating, Pigweed",[5]; [22],0
same,"Plant response rating, Pigweed",[5]; [23],0
same,Pigweed plant response rating,"[5]; Preemergence, scale 0 to 100",0
same,"Foxtail, Giant plant response rating","[6]; postemergence, 0-100 scale",95
same,"Plant response rating, Foxtail, Giant",[6]; [18],100
same,"Plant response rating, Foxtail, Giant",[6]; [19],100
same,"Plant response rating, Foxtail, Giant",[6]; [20],100
same,"Plant response rating, Foxtail, Giant",[6]; [21],100
same,"Plant response rating, Foxtail, Giant",[6]; [22],100
same,"Plant response rating, Foxtail, Giant",[6]; [23],100
same,"Foxtail, Giant plant response rating","[6]; Preemergence, scale 0 to 100",70
same,Morningglory plant response rating,"[7]; postemergence, 0-100 scale",0
same,"Plant response rating, Morningglory",[7]; [18],0
same,"Plant response rating, Morningglory",[7]; [19],0
same,"Plant response rating, Morningglory",[7]; [20],0
same,"Plant response rating, Morningglory",[7]; [21],0
same,"Plant response rating, Morningglory",[7]; [22],0
same,"Plant response rating, Morningglory",[7]; [23],0
same,Morningglory plant response rating,"[7]; Preemergence, scale 0 to 100",0
same,Wheat plant response rating,"[8]; postemergence, 0-100 scale",0
same,"Plant response rating, Wheat",[8]; [18],60
same,"Plant response rating, Wheat",[8]; [19],85
same,"Plant response rating, Wheat",[8]; [20],98
same,"Plant response rating, Wheat",[8]; [21],10
same,"Plant response rating, Wheat",[8]; [22],90
same,"Plant response rating, Wheat",[8]; [23],95
same,Wheat plant response rating,"[8]; Preemergence, scale 0 to 100",0
same,Surinam Grass plant response rating,"[9]; postemergence, 0-100 scale",90
same,"Plant response rating, Surinam Grass",[9]; [18],100
same,"Plant response rating, Surinam Grass",[9]; [19],100
same,"Plant response rating, Surinam Grass",[9]; [20],100
same,"Plant response rating, Surinam Grass",[9]; [21],80
same,"Plant response rating, Surinam Grass",[9]; [22],98
same,"Plant response rating, Surinam Grass",[9]; [23],100
same,Surinam Grass plant response rating,"[9]; Preemergence, scale 0 to 100",80
same,Bermudagrass plant response rating,"[10]; postemergence, 0-100 scale",80
same,"Plant response rating, Bermudagrass",[10]; [18],100
same,"Plant response rating, Bermudagrass",[10]; [19],100
same,"Plant response rating, Bermudagrass",[10]; [20],100
same,Bermudagrass plant response rating,"[10]; Preemergence, scale 0 to 100 (0 no effect, 100 complete control)",0
same,"Plant response rating, Bermudagrass",[10]; [21],90
same,"Plant response rating, Bermudagrass",[10]; [22],98
same,"Plant response rating, Bermudagrass",[10]; [23],100
same,Soybean plant response rating,"[11]; postemergence, 0-100 scale",0
same,"Plant response rating, Soybean",[11]; [18],0
same,"Plant response rating, Soybean",[11]; [19],0
same,"Plant response rating, Soybean",[11]; [20],0
same,"Plant response rating, Soybean",[11]; [23],0
same,Soybean plant response rating,"[11]; Preemergence, scale 0 to 100",0
same,"Plant response rating, Sunflower","[12]; 16 g ai/ha, scale 0 to 100 (0 no effect, 100 complete control)",0
same,"Plant response rating, Sunflower","[12]; 31 g ai/ha, 0 to 100 scale, 0 no effect, 100 complete control",0
same,"Plant response rating, Sunflower","[12]; 62 g ai/ha, scale 0 to 100",0
same,Sunflower plant response rating,"[12]; 8 g ai/ha, scale 0 to 100",0
same,"Bromegrass, Downy plant response rating","[13]; postemergence, 0-100 scale",10
same,"Plant response rating, Bromegrass, Downy",[13]; [18],75
same,"Plant response rating, Bromegrass, Downy",[13]; [19],75
same,"Plant response rating, Bromegrass, Downy",[13]; [20],90
same,"Plant response rating, Bromegrass, Downy",[13]; [21],0
same,"Plant response rating, Bromegrass, Downy",[13]; [22],30
same,"Plant response rating, Bromegrass, Downy",[13]; [23],60
same,"Bromegrass, Downy plant response rating","[13]; Preemergence, scale 0 to 100",0
same,Lambsquarters plant response rating,[14]; [16],0
same,"Plant response rating, Lambsquarters",[14]; [18],0
same,"Plant response rating, Lambsquarters",[14]; [19],0
same,"Plant response rating, Lambsquarters",[14]; [20],0
same,"Plant response rating, Lambsquarters",[14]; [21],0
same,"Plant response rating, Lambsquarters",[14]; [22],0
same,"Plant response rating, Lambsquarters",[14]; [23],40
same,"Ryegrass, Italian plant response rating","[15]; postemergence, 0-100 scale",80
same,"Plant response rating, Ryegrass, Italian",[15]; [18],98
same,"Plant response rating, Ryegrass, Italian",[15]; [19],100
same,"Plant response rating, Ryegrass, Italian",[15]; [20],100
same,"Plant response rating, Ryegrass, Italian",[15]; [21],90
same,"Plant response rating, Ryegrass, Italian",[15]; [22],100
same,"Plant response rating, Ryegrass, Italian",[15]; [23],100
same,"Ryegrass, Italian plant response rating","[15]; Preemergence, scale 0 to 100",50
